# Reference: ChEMBL document CHEMBL1201862, “PubChem BioAssay data set” (2004)
#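 Cells were grown in 96-well plates and exposed to each compound for 48 hours at five concentrations; endpoints were interpolated linearly between bracketing concentrations, or set to the highest concentration if not reached. Here, GI50 denotes the concentration required for 50% inhibition of growth.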 The source made the active and inactive calls. Rule as the data show it: active = GI50 up to about 1.1 µM and inactive = higher.
# How the values were obtained:
# Assay in all cases: NCI tumour cell line growth inhibition, 48 h
# SNB-75 = tested on: SNB-75
# A549 = tested on: A549
# UACC-257 = tested on: UACC-257
# OVCAR-8 = tested on: OVCAR-8
# M14 = tested on: M14
# MDA-MB-435 = tested on: MDA-MB-435
# HCT-15 = tested on: HCT-15
# OVCAR-5 = tested on: OVCAR-5
# NCI-H522 = tested on: NCI-H522
# U-251 = tested on: U-251
# MOLT-4 = tested on: MOLT-4
# SN12C = tested on: SN12C
# SF-268 = tested on: SF-268
# ACHN = tested on: ACHN
# SW-620 = tested on: SW-620
# OVCAR-3 = tested on: OVCAR-3
# TK-10 = tested on: TK-10
# Malme-3M = tested on: Malme-3M
# NCI-H226 = tested on: NCI-H226
# K562 = tested on: K562
SMILES,GI50 (SNB-75),GI50 (A549),GI50 (UACC-257),GI50 (OVCAR-8),GI50 (M14),GI50 (MDA-MB-435),GI50 (HCT-15) [µM],GI50 (OVCAR-5),GI50 (NCI-H522),GI50 (U-251),GI50 (MOLT-4),GI50 (SN12C),GI50 (SF-268),GI50 (ACHN),GI50 (SW-620),GI50 (OVCAR-3),GI50 (TK-10),GI50 (Malme-3M),GI50 (NCI-H226),GI50 (K562)
COC(=O)C1=CO[C@@H](OC2OC(CO)C(O)C(O)C2O)[C@H]2[C@@H](C)[C@@H](O)[C@@H](O)[C@@H]12 (stereo partly specified),> 100 µM (inactive),> 100 µM (inactive),> 100 µM (inactive),> 100 µM (inactive),> 100 µM (inactive),> 100 µM (inactive),> 100,> 100 µM (inactive),> 100 µM (inactive),> 100 µM (inactive),> 100 µM (inactive),> 100 µM (inactive),> 100 µM (inactive),> 100 µM (inactive),> 100 µM (inactive),> 100 µM (inactive),> 100 µM (inactive),> 100 µM (inactive),> 100 µM (inactive),–
Cc1ccccc1C(=O)C#Cc1cn(C2CC(O)C(CO)O2)c(=O)[nH]c1=O (stereo unspecified),> 100 µM (inactive),> 100 µM (inactive),> 100 µM (inactive),> 100 µM (inactive),> 100 µM (inactive),> 100 µM (inactive),> 100,–,14.7 µM (inactive),> 100 µM (inactive),16.1 µM (inactive),> 100 µM (inactive),> 100 µM (inactive),> 100 µM (inactive),> 100 µM (inactive),> 100 µM (inactive),> 100 µM (inactive),18.3 µM (inactive),> 100 µM (inactive),57 µM (inactive)
Nc1n[n+]([O-])c2ccc(Cl)cc2[n+]1[O-],4.66 µM (inactive),20.4 µM (inactive),17.9 µM (inactive),> 10 µM (inactive),17.1 µM (inactive),21.4 µM (inactive),16.1,25.8 µM (inactive),15.3 µM (inactive),19.8 µM (inactive),14.7 µM (inactive),32.1 µM (inactive),52.1 µM (inactive),24.2 µM (inactive),20.6 µM (inactive),–,37.2 µM (inactive),18.3 µM (inactive),23.1 µM (inactive),10.3 µM (inactive)
CC(C)CC(NC(=O)C(COc1ccc([N+](=O)[O-])cc1)Cc1ccccc1)C(=O)Nc1ccccc1 (stereo unspecified),2.38 µM (inactive),16.1 µM (inactive),25.7 µM (inactive),6.98 µM (inactive),9.53 µM (inactive),14.1 µM (inactive),13.3,40.3 µM (inactive),12.5 µM (inactive),12.6 µM (inactive),22.1 µM (inactive),37.5 µM (inactive),–,16.8 µM (inactive),24.3 µM (inactive),41.1 µM (inactive),11.5 µM (inactive),5.02 µM (inactive),3.44 µM (inactive),19.2 µM (inactive)
N#CC(CC(=O)O)=C(c1ccccc1)c1ccccc1,> 100 µM (inactive),> 100 µM (inactive),> 100 µM (inactive),> 100 µM (inactive),> 100 µM (inactive),> 100 µM (inactive),> 100,> 100 µM (inactive),> 100 µM (inactive),> 100 µM (inactive),–,> 100 µM (inactive),> 100 µM (inactive),> 100 µM (inactive),> 100 µM (inactive),> 100 µM (inactive),> 100 µM (inactive),> 100 µM (inactive),> 100 µM (inactive),> 100 µM (inactive)
Clc1cccc(-c2sc(-c3cccs3)cc2Cc2cccs2)c1,> 10 µM (inactive),> 10 µM (inactive),> 10 µM (inactive),> 10 µM (inactive),> 10 µM (inactive),> 10 µM (inactive),2.79,–,> 10 µM (inactive),–,> 10 µM (inactive),> 10 µM (inactive),> 10 µM (inactive),> 10 µM (inactive),> 10 µM (inactive),–,> 10 µM (inactive),> 10 µM (inactive),> 10 µM (inactive),> 10 µM (inactive)
COc1ccc(O)c(/C(C)=N/NC(=S)N(C)C)c1,75.5 µM (inactive),23.4 µM (inactive),63.4 µM (inactive),33.4 µM (inactive),11.8 µM (inactive),57.7 µM (inactive),5.12,> 61.9 µM (inactive),1.33 µM (inactive),> 36.6 µM (inactive),36.5 µM (inactive),> 44.2 µM (inactive),20.9 µM (inactive),13.5 µM (inactive),28.6 µM (inactive),37.3 µM (inactive),–,71 µM (inactive),16.1 µM (inactive),60.1 µM (inactive)
